These results are taken from PMC7956587, “Molecular Docking Studies and Biological Evaluation of Berberine–Benzothiazole Derivatives as an Anti-Influenza Agent via Blocking of Neuraminidase” (International Journal of Molecular Sciences, 2021).

One series is described as follows: in vitro. The conditions noted are these: dog.
The next series deals with MDCK cells. The conditions noted are these: dog, 48 h.
The test system of series [1] is influenza B virus B/Maryland/1/59. Briefly: In vitro antiviral bioassay (CPE reduction, SRB) in MDCK cells. Format: cell-based. Particulars: for IC50: Influenza B virus, MDCK cells, 50 TCID50, 48 h, mean ± S.D., triplicate, read-out: IC50 B/MARYLAND/1/59; for TI B/MARYLAND/1/59: Therapeutic index, TI = CC50/IC50.
Series [2] relates to influenza B virus B/Lee/40. Described as above. It counts as cell-based. The conditions noted are these: for IC50: Influenza B virus, MDCK cells, 50 TCID50, 48 h, mean ± S.D., triplicate; for TI B/LEE/40: Therapeutic index, TI = CC50/IC50.
In series [3] the test system is influenza A virus A/Vic/3/75 (H3N2). The description is as above. Particulars: for IC50: Influenza A virus, H3N2, MDCK, 48 h; for TI A/VIC/3/75 (H3N2): Therapeutic index, TI = CC50/IC50. Format: cell-based.
Series [4] deals with influenza virus neuraminidase (Influenza A virus, UniProt P03468). Nature of the series: Viral neuraminidase inhibition assay (NA-Star kit). It counts as biochemical, influenza A/PR/8/34 virus. Particulars: for NA inhibition activity (in words): compared with oseltamivir, Figure 1; for activity at 0.1 µg/mL: at 0.1 μg/mL; for activity at 0.1 µg/mL / activity at 1 µg/mL / activity at 10 µg/mL: (Treatment/Virus) × 100, remaining activity; for activity at 1 µg/mL: at 1 μg/mL; for activity at 10 µg/mL: at 10 μg/mL.

Series [5] relates to influenza A virus A/PR/8/34 (H1N1). Nature of the series: In vitro antiviral bioassay (CPE reduction, SRB) in MDCK cells. Format: cell-based. Particulars: for IC50: Influenza A virus, MDCK, 48 h; for TI A/PR/8/34 (H1N1): Therapeutic index, TI = CC50/IC50.

SMILES strings stand for the structures.

influenza virus neuraminidase, sequence (P03468 whole entry, looked up): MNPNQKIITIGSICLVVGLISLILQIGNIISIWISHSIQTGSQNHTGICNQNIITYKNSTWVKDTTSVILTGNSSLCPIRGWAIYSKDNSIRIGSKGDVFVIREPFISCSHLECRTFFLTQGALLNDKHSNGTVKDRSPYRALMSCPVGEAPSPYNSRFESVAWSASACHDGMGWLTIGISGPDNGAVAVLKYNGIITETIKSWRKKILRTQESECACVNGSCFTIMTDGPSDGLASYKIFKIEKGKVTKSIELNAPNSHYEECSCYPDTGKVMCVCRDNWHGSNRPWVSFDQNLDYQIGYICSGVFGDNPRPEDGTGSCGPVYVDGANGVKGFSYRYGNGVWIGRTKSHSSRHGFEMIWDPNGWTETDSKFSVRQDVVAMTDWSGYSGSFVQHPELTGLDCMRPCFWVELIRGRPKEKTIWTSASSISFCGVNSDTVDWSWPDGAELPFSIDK

In turn, `COc1ccc2nc(NCCCCCOc3c(OC)ccc4cc5[n+](cc34)CCc3cc4c(cc3-5)OCO4)sc2c1` [BBD 5] registered a CC50 at 48 h in the series “in vitro” greater than 100 µg/mL. The same molecule had a CC50 in the series with MDCK cells of 306.4 ± 3.612 µg/mL. Also, in series [1], the IC50 is 44.3 ± 2.06 µg/mL and the “TI B/MARYLAND/1/59” value is on record as 6.921. In addition, in series [2], the IC50 came to 36.9 ± 1.52 µg/mL and the “TI B/LEE/40” value is 8.294. Moreover, in series [3], the IC50 is 57.3 ± 2.13 µg/mL and the “TI A/VIC/3/75 (H3N2)” value worked out at 5.343. In series [4], the “NA inhibition activity (in words)” value was “moderate NA inhibition activity”. For the same molecule, in series [5], the IC50 stood at 39.54 ± 0.326 µg/mL and the “TI A/PR/8/34 (H1N1)” value was determined as 7.749.

In the series “in vitro”, `COc1ccc2cc3[n+](cc2c1OCCCCCNc1nc2c(F)cc(F)cc2s1)CCc1cc2c(cc1-3)OCO2` [BBD 11] gave a CC50 at 48 h greater than 100 µg/mL. The same molecule returned a CC50 with MDCK cells of 467.7 ± 2.647 µg/mL. Moreover, in series [1], the IC50 stood at 98.3 ± 2.21 µg/mL and the “TI B/MARYLAND/1/59” value is 4.75. Moreover, in series [2], the IC50 turned out to be 85.1 ± 3.74 µg/mL and the “TI B/LEE/40” value amounted to 5.494. Besides, in series [3], the IC50 is 48.4 ± 2.2 µg/mL and the “TI A/VIC/3/75 (H3N2)” value is 9.655. In series [4], this molecule gave an activity at 0.1 µg/mL of 40.8%, an activity at 1 µg/mL of 33.2% and an activity at 10 µg/mL of 18.4%. In series [5], the IC50 amounted to 27.2 ± 0.394 µg/mL and the “TI A/PR/8/34 (H1N1)” value came to 17.19.

In the series “in vitro”, `CCOc1ccc2nc(NCCCCCOc3c(OC)ccc4cc5[n+](cc34)CCc3cc4c(cc3-5)OCO4)sc2c1` [BBD 6] gave a CC50 at 48 h greater than 100 µg/mL. Also, in the series with MDCK cells, the CC50 is reported as 221.4 ± 1.180 µg/mL. In addition, in series [1], the IC50 was 36.9 ± 2.15 µg/mL and the “TI B/MARYLAND/1/59” value was 6.003. Also, in series [2], the IC50 was found to be 38.8 ± 2.08 µg/mL and the “TI B/LEE/40” value was 5.712. In series [3], the IC50 was found to be 60.4 ± 1.35 µg/mL and the “TI A/VIC/3/75 (H3N2)” value is 3.663. Also, in series [5], the IC50 came to 42.8 ± 0.478 µg/mL and the “TI A/PR/8/34 (H1N1)” value was 5.176.

In the series “in vitro”, `COc1ccc2cc3[n+](cc2c1OCCCCCNc1nc2ccc([N+](=O)[O-])cc2s1)CCc1cc2c(cc1-3)OCO2` [BBD 2] returned a CC50 at 48 h greater than 100 µg/mL. Moreover, the CC50 in the series with MDCK cells is on record as 340.5 ± 1.180 µg/mL. In series [1], the IC50 was determined as 65.3 ± 1.88 µg/mL and the “TI B/MARYLAND/1/59” value is given as 5.212. In addition, in series [2], the IC50 was determined as 61.7 ± 1.65 µg/mL and the “TI B/LEE/40” value was 5.516. Moreover, in series [3], the IC50 was 52.2 ± 2.07 µg/mL and the “TI A/VIC/3/75 (H3N2)” value was found to be 6.525. In series [5], the IC50 came out at 30.9 ± 0.619 µg/mL and the “TI A/PR/8/34 (H1N1)” value is recorded as 11.01.

In “in vitro”, `COc1ccc2cc3[n+](cc2c1OCCCCCNc1nc2ccc(C)cc2s1)CCc1cc2c(cc1-3)OCO2` [BBD 4] had a CC50 at 48 h greater than 100 µg/mL. In the series on MDCK cells, this molecule came in with a CC50 of 322.6 ± 2.543 µg/mL. Besides, in series [1], the IC50 stood at 41.6 ± 0.67 µg/mL and the “TI B/MARYLAND/1/59” value was found to be 7.762. In addition, in series [2], the IC50 is 43.2 ± 0.86 µg/mL and the “TI B/LEE/40” value is 7.406. For the same molecule, in series [3], the IC50 was determined as 55 ± 0.87 µg/mL and the “TI A/VIC/3/75 (H3N2)” value came to 5.862. Besides, in series [4], the “NA inhibition activity (in words)” value is reported as “moderate NA inhibition activity”. For the same molecule, in series [5], the IC50 was 37.3 ± 0.669 µg/mL and the “TI A/PR/8/34 (H1N1)” value is 8.655.

Take `COc1ccc2cc3[n+](cc2c1OCCCCCNc1nc2ccc(F)cc2s1)CCc1cc2c(cc1-3)OCO2` [BBD 10]: the CC50 at 48 h in “in vitro” is greater than 100 µg/mL. For the same molecule, the CC50 in the series with MDCK cells is on record as 310.6 ± 1.629 µg/mL. Besides, in series [1], the IC50 was found to be 75.7 ± 2.06 µg/mL and the “TI B/MARYLAND/1/59” value stood at 4.100. Besides, in series [2], the IC50 worked out at 64.6 ± 1.24 µg/mL and the “TI B/LEE/40” value amounted to 4.812. In series [3], the IC50 was determined as 49.9 ± 1.31 µg/mL and the “TI A/VIC/3/75 (H3N2)” value was 6.228. Moreover, in series [5], the IC50 is 30.5 ± 0.761 µg/mL and the “TI A/PR/8/34 (H1N1)” value was 10.18.

Molecule `COc1ccc2cc3[n+](cc2c1OCCCCCNNc1nc2ccccc2s1)CCc1cc2c(cc1-3)OCO2` [BBD 14] returned a CC50 at 48 h in the series “in vitro” greater than 100 µg/mL. In the series on MDCK cells, this molecule gave a CC50 of 304.3 ± 1.261 µg/mL. For the same molecule, in series [1], the IC50 turned out to be 73.4 ± 2.17 µg/mL and the “TI B/MARYLAND/1/59” value is on record as 4.143. For the same molecule, in series [2], the IC50 was 70.3 ± 2.24 µg/mL and the “TI B/LEE/40” value amounted to 4.327. Also, in series [3], the IC50 turned out to be 56.3 ± 2.06 µg/mL and the “TI A/VIC/3/75 (H3N2)” value came out at 5.403. Further, in series [5], the IC50 turned out to be 40.3 ± 0.725 µg/mL and the “TI A/PR/8/34 (H1N1)” value turned out to be 7.543.

`COc1ccc2cc3[n+](cc2c1OCCCCCNc1nc2ccccc2s1)CCc1cc2c(cc1-3)OCO2` [BBD 1] came in with a CC50 at 48 h in “in vitro” greater than 100 µg/mL. For the same molecule, the CC50 in the series on MDCK cells is recorded as 436.7 ± 2.635 µg/mL. Further, in series [1], the IC50 amounted to 55.1 ± 2.65 µg/mL and the “TI B/MARYLAND/1/59” value was determined as 7.924. Also, in series [2], the IC50 came out at 55.5 ± 3.77 µg/mL and the “TI B/LEE/40” value came to 7.874. Further, in series [3], the IC50 worked out at 45.1 ± 1.75 µg/mL and the “TI A/VIC/3/75 (H3N2)” value stood at 9.672. In series [4], this molecule showed an activity at 0.1 µg/mL of 40.3%, an activity at 1 µg/mL of 30.4% and an activity at 10 µg/mL of 15.6%. In series [5], the IC50 was 25.2 ± 0.154 µg/mL and the “TI A/PR/8/34 (H1N1)” value stood at 17.32.
